Results on one compound are retold here after patent publication US8188272B2, “Fused heterocyclic compounds useful as kinase modulators” (Bristol-Myers Squibb Company, priority 2007, dated 2012).

Structures are written as SMILES.

The subject of one experiment is Mouse splenic B cells. Nature of the experiment: Mouse Splenic B Cell Proliferation Assay. The class given is cell-based. Conditions: Balb/c splenic B cells stimulated with anti-mouse IgG IgM F(ab')2 10 μg/ml, 72 hours, 3[H]-thymidine. How it is done:
Mouse Splenic B Cell Proliferation Assay
Spleens from Balb/c mice (<12 weeks old) were mashed through screens and red blood cells were removed from splenocytes with RBC lysing buffer (Sigma-Aldrich Chemical Co, —St. Louis, Mo.). T cells were depleted by incubation on nylon wool columns (Wako, Richmond, Va.). Resulting splenic B cells prepared this way were routinely >90% CD19^+ as measured by FACS analysis. B cells (1×10^5 cells per well) were added to serial dilutions of compounds in triplicate in 96-well flat-bottom plates in RPMI 1640 (Invitrogen, Grand Island, N.Y.), supplemented with 10% heat-inactivated fetal calf serum (FCS, Summit Biotechnology, Fort Collins, Colo.), containing 1% L-glutamine (Invitrogen), […] gentamicin (Invitrogen) and 5×10^−5M β-mercaptoethanol (Sigma-Aldrich). Cells were stimulated with 10 μg/ml of Affinipure F(ab′)2 fragment goat anti-mouse IgG IgM (Jackson Immunoresearch, West Grove, Pa.). Cultures were incubated for 72 hours, and pulsed for the last 6 hours with one μCi/well of ^3[H]-thymidine (PerkinElmer, Boston, Mass.) prior to harvest on a Packard cell harvester (PerkinElmer), and counted by liquid scintillation on a Packard TopCount NXT (PerkinElmer).

For another experiment, the system named is Ramos RA1 B cells. The experiment is described as follows: Ramos FLIPR Assay (intracellular calcium). The class given is cell-based. The following applies: Homo sapiens; Ramos RA1 B cells stimulated with F(ab')2 anti-IgM/IgG, peak intracellular calcium; read-out: Human Ramos Cell FLIPR (IC50 uM). How it is done: Ramos RA1 B cells (ATCC CRL-1596) at a density of 2×10^6 cells/ml in RPMI minus phenol red (Invitrogen 11835-030) and 50 mM HEPES (Invitrogen 15630-130) containing 0.1% BSA (Sigma A8577) were added to one half volume of calcium loading buffer (BD bulk kit for probenecid sensitive assays, # 640177) and incubated at room temperature in the dark for 1 hour. Dye-loaded cells were pelleted (Beckmann GS-CKR, 1200 rpm, RT, 5 minutes) and resuspended in RT RPMI minus phenol red with 50 mM HEPES and 10% FBS to a density of 1×10^6 cells/ml. 150 μl aliquots (150,000/well) were plated into 96 well poly-D-lysine coated assay plates (BD 35 4640) and briefly centrifuged (Beckmann GS-CKR 800 rpm, 5 minutes, without brake). 50 μl compound dilutions in 0.4% DMSO/RPMI minus phenol red+50 mM HEPES+10% FBS were added to the wells and the plate was incubated at RT in the dark for 1 hour. Assay plate was briefly centrifuged as above prior to measuring calcium levels.
Using the FLIPR1 (Molecular devices), cells were stimulated by adding 50 μl 200 μg/ml F(ab′)2 anti-IgM/IgG (Jackson ImmunoResearch 109-006-127) diluted in 1X HBSS (Invitrogen 14025-076), 50 mM HEPES, 0.1% BSA. Changes in intracellular calcium concentrations were measured for 180 seconds and percent inhibition was determined relative to peak calcium levels seen in the presence of F(ab′)2 anti-IgM/IgG only.
(A change in cytosolic calcium serves as a functional read-out for many receptors and channels.)

For `CC(C)(C)c1ccc(C(=O)N[C@@H]2CCCN(c3nc(Nc4ccc(C(=O)N5CCOCC5)cc4)c4ncc(N)n4n3)C2)cc1` [Example 26, (R)—N-(1-(7-Amino-4-(4-(morpholine-4-carbonyl)phenylamino)imidazo[1,2-f][1,2,4]triazin-2-yl)piperidin-3-yl)-4-tert-butylbenzamide], the IC50 (in general, the concentration that inhibits the measured activity by half) in the experiment on Mouse splenic B cells worked out at 0.08 µM; in the experiment on Ramos RA1 B cells, 0.015 µM.
